The results in this text go back to US10195196B2, “1,4-disubstituted pyridazine analogs there of and methods for treating SMN-deficiency-related conditions” (NOVARTIS AG, priority 2012, dated 2019).

The test system of the assay is SMN protein. The assay is described as follows: cellular SMN ELISA (SMN protein elevation). It is filed as cell-based. As to conditions: myoblast cell line from SMNdelta7 mouse model, 24 hours treatment; for SMN activity Fold: fold activation over DMSO control. In a few lines: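 Readout is fold SMN elevation versus DMSO plus EC50, measured by anti-SMN capture ELISA with 450 nm absorbance. Lysates came from a myoblast line of the SMNdelta7 mouse model after 24 h compound exposure, with dose ranges of 20 nM–10 μM (condition 1) or 100 pM–10 μM (condition 2).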

Where [1] appears, read: ELISA condition 2: compound concentration 100 pM-10 uM.
Where [2] appears, read: ELISA condition 1: compound concentration range 20 nM-10 uM.

With `CN(c1ccc(-c2c(O)cc(-c3cnn(C)c3)cc2F)nn1)C1CC(C)(C)NC(C)(C)C1` [Example 40-8, 3-fluoro-2-(6-(methyl(2,2,6,6-tetramethylpiperidin-4-yl)amino)pyridazin-3-yl)-5-(1-methyl-1H-pyrazol-4-yl)phenol], under setting [1], the EC50 was determined as 16 nM and the “SMN activity Fold” value stood at 3.18 Fold.

In the case of `CN(c1ccc(-c2ccc3cnncc3c2)nn1)C1CC(C)(C)NC(C)(C)C1` [Example 1-22, N-methyl-6-(phthalazin-6-yl)-N-(2,2,6,6-tetramethylpiperidin-4-yl)pyridazin-3-amine], under setting [1], the EC50 came out at 867 nM and the “SMN activity Fold” value came out at 2.71 Fold.

In the case of `Oc1ccc2cc(-c3ccc(C4CCNCC4)nn3)c(O)cc2c1` [Example 19-7, 3-(6-(piperidin-4-yl)pyridazin-3-yl)naphthalene-2,7-diol], under setting [1], the EC50 was determined as 37 nM and the “SMN activity Fold” value is reported as 3.07 Fold.

For the compound `CN(C)C1CCCN(c2ccc(-c3ccc(-n4cccn4)cc3O)nn2)C1` (stereo not shown) [Example 18-13, 2-[6-(3-dimethyl-amino-piperidin-1-yl)-pyridazin-3-yl]-5-pyrazol-1-yl-phenol], under setting [1], the concentration giving a half-maximal response (EC50) was 1240 nM and the “SMN activity Fold” value is reported as 2.28 Fold.

On to `CC1(C)CC(Oc2ccc(-c3cc4ccc(OCCN5CCOCC5)cc4cc3O)nn2)CC(C)(C)N1` [Example 20-9, 7-(2-morpholinoethoxy)-3-(6-((2,2,6,6-tetramethylpiperidin-4-yl)oxy)pyridazin-3-yl)naphthalen-2-ol], for which, under setting [1], the EC50 was 176 nM and the “SMN activity Fold” value was determined as 2.44 Fold.

With `CC(=O)NCCCOc1ccc2cc(-c3ccc(N(C)C4CC(C)(C)NC(C)(C)C4)nn3)c(O)cc2c1` [Example 20-6, N-[3-(7-hydroxy-6-{6-[methyl-(2,2,6,6-tetramethyl-piperidin-4-yl)-amino]-pyridazin-3-yl}-naphthalen-2-yloxy)-propyl]-acetamide], under setting [1], the EC50 was determined as 50 nM and the “SMN activity Fold” value is listed as 2.18 Fold.

As to `COc1cc(-c2cn[nH]c2)cc(O)c1-c1ccc(N(C)C2CC(C)(C)NC(C)(C)C2)nn1` [Example 25-2, 3-methoxy-2-(6-(methyl(2,2,6,6-tetramethylpiperidin-4-yl)amino)pyridazin-3-yl)-5-(1H-pyrazol-4-yl)phenol], under setting [1], the EC50 amounted to 8 nM and the “SMN activity Fold” value is 3.44 Fold.

Take `CN(c1ccc(-c2ccc(-c3ccn4cncc4c3)cc2O)nn1)C1CC(C)(C)NC(C)(C)C1` [Example 41-18, 5-(imidazo[1,5-a]pyridin-7-yl)-2-(6-(methyl(2,2,6,6-tetramethylpiperidin-4-yl)amino)pyridazin-3-yl)phenol]: under setting [1], the 50% effective concentration (EC50) worked out at 17 nM and the “SMN activity Fold” value came out at 2.44 Fold.

For `CN(c1ccc(-c2cc(-c3ccnc(O)c3)ccc2O)nn1)C1CC(C)(C)NC(C)(C)C1` [Example 32-7, 4-(4-hydroxy-3-(6-(methyl(2,2,6,6-tetramethylpiperidin-4-yl)amino)pyridazin-3-yl)phenyl)pyridin-2-ol], under setting [1], it took 551 nM to reach a half-maximal effect (EC50) and the “SMN activity Fold” value turned out to be 3.27 Fold.

For `COc1ccc(-c2ccc(-c3ccc(N(C)C4CC(C)(C)NC(C)(C)C4)nn3)c(O)c2)cn1` [Example 41-4, 5-(6-methoxypyridin-3-yl)-2-(6-(methyl(2,2,6,6-tetramethylpiperidin-4-yl)amino)pyridazin-3-yl)phenol], under setting [1], it took 80 nM to reach a half-maximal effect (EC50) and the “SMN activity Fold” value was 3.29 Fold.

For `CN(c1ccc(-c2cc3ccc(OCCCN)cc3cc2O)nn1)C1CC(C)(C)NC(C)(C)C1` [Example 20-5, 7-(3-amino-propoxy)-3-{6-[methyl-(2,2,6,6-tetramethyl-piperidin-4-yl)-amino]-pyridazin-3-yl}-naphthalen-2-ol], under setting [1], the half-maximal effective concentration (EC50) was determined as 6 nM and the “SMN activity Fold” value was 2.66 Fold.

`COc1cncc(-c2ccc(-c3ccc(N(C)C4CC(C)(C)NC(C)(C)C4)nn3)c(O)c2)c1` [Example 41-1, 5-(5-methoxypyridin-3-yl)-2-(6-(methyl(2,2,6,6-tetramethylpiperidin-4-yl)amino)pyridazin-3-yl)phenol]: under setting [1], the EC50 was determined as 125 nM and the “SMN activity Fold” value came out at 2.78 Fold.

`Oc1cc2ccccc2cc1-c1ccc(NC2CNC2)nn1` [Example 18-2, 3-[6-(azetidin-3-ylamino)-pyridazin-3-yl]-naphthalen-2-ol]: under setting [1], the 50% effective concentration (EC50) was 3230 nM and the “SMN activity Fold” value worked out at 1.97 Fold.

Turning to `Oc1cc(-n2cccn2)ccc1-c1ccc(OCC2CCNC2)nn1` (single isomer, unassigned) [Example 17-8, 5-(1H-pyrazol-1-yl)-2-(6-(pyrrolidin-3-ylmethoxy)pyridazin-3-yl)phenol], under setting [1], a half-maximal response (EC50) required 3150 nM and the “SMN activity Fold” value is listed as 2.18 Fold.

In the case of `CN(c1ccc(-c2ccc(-c3cnc4n3CCNC4)cc2O)nn1)C1CC(C)(C)NC(C)(C)C1` [Example 42-4, 2-(6-(methyl(2,2,6,6-tetramethylpiperidin-4-yl)amino)pyridazin-3-yl)-5-(5,6,7,8-tetrahydroimidazo[1,2-a]pyrazin-3-yl)phenol], under setting [1], the EC50 was 853 nM and the “SMN activity Fold” value came out at 2.41 Fold.

For `Oc1ccc2cc(-c3ccc(N4CCNCC4)nn3)c(O)cc2c1` [Example 18-18, 3-(6-(piperazin-1-yl)pyridazin-3-yl)naphthalene-2,7-diol], under setting [1], the EC50 stood at 56 nM and the “SMN activity Fold” value came out at 2.57 Fold.

As to `CN(c1ccc(-c2ccc(-c3c[nH]cn3)cc2O)nn1)C1CC(C)(C)NC(C)(C)C1` [Example 42-2, 5-(1H-imidazol-4-yl)-2-(6-(methyl(2,2,6,6-tetramethylpiperidin-4-yl)amino)pyridazin-3-yl)phenol], under setting [1], the response was half-maximal at 26 nM (EC50) and the “SMN activity Fold” value was 2.06 Fold.

Take `CN(c1ccc(-c2ccc(Cl)cc2O)nn1)C1CC(C)(C)N(C)C(C)(C)C1` [Example 3-2, 5-chloro-2-(6-(methyl(1,2,2,6,6-pentamethylpiperidin-4-yl)amino)pyridazin-3-yl)phenol]: under setting [2], the concentration giving a half-maximal response (EC50) stood at 1070 nM and the “SMN activity Fold” value came out at 2.06 Fold.

On to `Cn1ccc(-c2ccc(-c3ccc(N4CCC5(CCCNC5)C4)nn3)c(O)c2)cc1=O` (stereo not shown) [Example 43-7, 4-(4-(6-(2,7-diazaspiro[4.5]decan-2-yl)pyridazin-3-yl)-3-hydroxyphenyl)-1-methylpyridin-2(1H)-one], for which, under setting [1], the EC50 was found to be 156 nM and the “SMN activity Fold” value is 2.42 Fold.

For the compound `C=CCc1c(O)ccc2cc(-c3ccc(N(C)C4CC(C)(C)NC(C)(C)C4)nn3)ccc12` [Example 6-1, 1-allyl-6-(6-(methyl(2,2,6,6-tetramethylpiperidin-4-yl)amino)pyridazin-3-yl)naphthalen-2-ol], under setting [1], it took 630 nM to reach a half-maximal effect (EC50) and the “SMN activity Fold” value is 2.04 Fold.

Consider `Cc1nc(-c2ccc(-c3ccc(N(C)C4CC(C)(C)NC(C)(C)C4)nn3)c(O)c2)cn1C` [Example 42-10, 5-(1,2-dimethyl-1H-imidazol-4-yl)-2-(6-(methyl(2,2,6,6-tetramethylpiperidin-4-yl)amino)pyridazin-3-yl)phenol], for which, under setting [1], the EC50 was 57 nM and the “SMN activity Fold” value was found to be 3.10 Fold.

`COc1cc(-c2cccnc2)cc(O)c1-c1ccc(N(C)C2CC(C)(C)NC(C)(C)C2)nn1` [Example 26-3, 3-methoxy-2-(6-(methyl(2,2,6,6-tetramethylpiperidin-4-yl)amino)pyridazin-3-yl)-5-(pyridin-3-yl)phenol]: under setting [1], the EC50 turned out to be 47 nM and the “SMN activity Fold” value is 2.70 Fold.

For the compound `CN(c1ccc(-c2ccc(Cl)cc2O)nn1)C1CC(C)(C)NC(C)(C)C1` [Example 29-1, 5-chloro-2-(6-(methyl(2,2,6,6-tetramethylpiperidin-4-yl)amino)pyridazin-3-yl)phenol], under setting [1], the half-maximal effective concentration (EC50) was found to be 113 nM and the “SMN activity Fold” value was found to be 2.49 Fold.

`CN(c1ccc(-c2ccc(C3=CCCC3)cc2O)nn1)C1CC(C)(C)NC(C)(C)C1` [Example 41-16, 5-(cyclopent-1-en-1-yl)-2-(6-(methyl(2,2,6,6-tetramethylpiperidin-4-yl)amino)pyridazin-3-yl)phenol]: under setting [1], the midpoint of the response, the EC50, lay at 62 nM and the “SMN activity Fold” value stood at 2.30 Fold.

As to `CN1CCC2(CCN(c3ccc(-c4ccc(-n5cccn5)cc4O)nn3)C2)C1` (stereo not shown) [Example 18-5, 2-[6-(7-methyl-2,7-diaza-spiro[4.4]non-2-yl)-pyridazin-3-yl]-5-pyrazol-1-yl-phenol], under setting [1], the EC50 was determined as 151 nM and the “SMN activity Fold” value amounted to 2.66 Fold.

On to `Cc1cc(-c2ccc(-c3ccc(N(C)C4CC(C)(C)NC(C)(C)C4)nn3)c(O)c2)ccn1` [Example 41-20, 2-(6-(methyl(2,2,6,6-tetramethylpiperidin-4-yl)amino)pyridazin-3-yl)-5-(2-methylpyridin-4-yl)phenol], for which, under setting [1], the 50% effective concentration (EC50) amounted to 32 nM and the “SMN activity Fold” value amounted to 2.63 Fold.

For `OCCN1CCC2(CCN(c3ccc(-c4ccc(-n5cccn5)cc4O)nn3)C2)C1` (stereo not shown) [Example 18-16, 2-(6-(7-(2-hydroxyethyl)-2,7-diazaspiro[4.4]-nonan-2-yl)pyridazin-3-yl)-5-(1H-pyrazol-1-yl)phenol], under setting [1], the response was half-maximal at 227 nM (EC50) and the “SMN activity Fold” value is 3.25 Fold.

Regarding `CC1(C)CC(Nc2ccc(-c3ccc(C#N)cc3O)nn2)CC(C)(C)N1` [Example 30-2, 3-hydroxy-4-(6-((2,2,6,6-tetramethylpiperidin-4-yl)amino)pyridazin-3-yl)benzonitrile], under setting [1], the half-maximal effective concentration (EC50) is 62 nM and the “SMN activity Fold” value is 2.98 Fold.

With `CN(c1ccc(-c2ccc(-c3cncn3C)cc2O)nn1)C1CC(C)(C)NC(C)(C)C1` [Example 42-7, 2-(6-(methyl(2,2,6,6-tetramethylpiperidin-4-yl)amino)pyridazin-3-yl)-5-(1-methyl-1H-imidazol-5-yl)phenol], under setting [1], the midpoint of the response, the EC50, lay at 55 nM and the “SMN activity Fold” value stood at 2.51 Fold.
